# From publication PMC11079024, “Identification of a family of species-selective complex I inhibitors as potential anthelmintics” (Nature Communications, 2024)
# Values joined by “and” are separate entries in the source; they are usually repeats but may differ in a detail not shown here. Identical values can stand only once. Like-named read-outs stand apart in the source and are kept apart here.
# Experiments:
# C. elegans = C. elegans chemical screens of RIKEN NPD libraries at 50 μM (hit identification in KCN survival and development/viability assays); format: cell-based, Caenorhabditis elegans; details: screened at 50 μM in triplicate; […]; KCN = KCN survival assay, Dev. & Viability = development/viability assay
# P. pacificus complex I = P. pacificus complex I (Pristionchus pacificus, UniProt A0A454XZ18+A0A8R1Z3U8+A4UAP3); experiment: In vitro complex I activity assay, P. pacificus mitochondria; format: biochemical
# Protocol: (§1) Mitochondria were isolated from the following free-living nematode strains: C. elegans—N2, CB3474, ECA882, ECA917, ECA1075, ECA1080; C. briggsae—AF16; P. pacificus—PS312; and P. hermaphrodita—B178. With the exception of the P. hermaphrodita strain B178, adult worms of each strain were grown in bulk through liquid culture to obtain mitochondria in sufficient quantities. Due to poor growth in liquid media, mixed stage populations of P. hermaphrodita were washed off and collected from NGM plates seeded with OP50. The isolation of mitochondria from all free-living nematode strains followed the protocol previously outlined in Burns et al.[24]. In brief, a 1 L saturated culture of E. coli HB101 was concentrated 20-fold in 50 mL complete S-medium. ~500,000 L1 worms synchronized from an embryo preparation performed the day prior were added to the S-media/HB101 suspension and grown to adulthood over the course of 3.5 days at 20 °C with shaking at 165 rpm. Following growth, worms were collected in 10 ×15 mL conical tubes and washed 7 times in M9 buffer. Worm suspensions were then combined into a single 15 mL conical tube and diluted to a final volume of 15 mL with M9 buffer. 1 mL aliquots of worm suspension were then distributed to 15 × 1.5 mL screw-cap microcentrifuge tubes and were pelleted at 500 g for 1 min. Excess M9 was aspirated without disturbing the worm pellet. 600 μL ice-cold isolate buffer A (250 mM sucrose, 10 mM Tris (pH 7.5), 1 mM EDTA, 1 mM PMSF (freshly prepared)) and 300 μL cold glass beads were then added to each tube. Tubes were incubated on ice for 10 min, and the worms were then lysed by bead beating (6 x 30 s, with 1 min cooling intervals). Tubes containing worm lysate were centrifuged at 1,000 g for 10 min at 4 °C and the supernatant was transferred to 15 new microcentrifuge tubes on ice. The tubes were centrifuged a second time at 1,000 g for 10 min at 4 °C and the supernatant was once again transferred to 15 new microcentrifuge tubes on ice. These tubes were then centrifuged at 16,000 g for 10 min at 4 °C. The resulting mitochondrial pellet was washed twice by re-suspension in 300 μL of ice-cold isolate buffer B (250 mM sucrose, 10 mM Tris (pH 7.5), 1 mM EDTA). Following the final wash, isolation buffer was aspirated from each tube and the pellets were flash-frozen in ethanol/dry ice and stored at −80 °C until needed.
# (§2) The enzymatic activities of individual ETC complexes (I-IV) were assessed spectrophotometrically in isolated mitochondria using a Varioskan LUX Multimode plate reader (ThermoFisher Scientific). Mitochondrial pellets previously isolated were thawed on ice and resuspended in ice-cold isolation buffer (250 mM sucrose, 10 mM Tris (pH 7.5), 1 mM EDTA). The BCA assay (Walker, 1994) was used to quantify the protein concentration of mitochondria suspensions; solutions were diluted to a concentration of 0.2 mg/mL for use in all assays. For the complex I assay, mitochondria pellets were freeze-thawed on ice three times to increase enzyme accessibility. […] 20 μL mitochondria suspension was then added/mixed with a pipette to initiate the reaction. Immediately following the addition of mitochondria, absorbance was measured (complex I and II: 600 nm; complex III and IV: 550 nm) in 30 s intervals over 15 min. Enzymatic activity was determined in each reaction by plotting absorbance versus time and calculating the slope of the curve during the initial linear phase of the reaction. […] Percent activity of each complex was calculated by dividing the enzyme-specific activity of each well by the enzyme-specific activity of the corresponding solvent controls.
# (§3) Chemical solutions were prepared in complex I assay buffer composed of 25 mM KPi buffer (pH 7.5), 3 mg/mL bovine serum albumin (BSA), 80 μM NADH, 60 μM decylubiquinone, 160 μM DCIP, 2 μM antimycin A and 2 mM KCN. […]
# [1] = tested on: P. hermaphrodita complex I; experiment: In vitro complex I activity assay, P. hermaphrodita mitochondria; format: biochemical, Phasmarhabditis hermaphrodita; details: for in vitro complex I activity relative to solvent control: P. hermaphrodita mitochondria
# Protocol: as §1, §2, §3
smiles,measurement,setting,value
COc1cc2c(cc1OC)C(C(C)c1ccc(CC(C)C)cc1)=NCC2 (stereo not shown) [NPD10504],Hit Type,C. elegans,KCN
Cc1nc2ccccc2n1Cc1ccc(Cl)cc1 [STK697993],remaining activity at 0.0001 µM,"P. pacificus complex I; P. pacificus mitochondria, 0.0001 µM, Mean, read-out: in vitro complex I activity relative to solvent control",94.6%
same,in vitro complex I activity relative to solvent control,"P. pacificus complex I; P. pacificus mitochondria, 0.0001 µM, single replicate",101.484% and 94.523%
same,remaining activity at 0.0001 µM,"P. pacificus complex I; P. pacificus mitochondria, 0.0001 µM, single replicate, read-out: in vitro complex I activity relative to solvent control",87.6%
same,remaining activity at 0.0005 µM,"P. pacificus complex I; P. pacificus mitochondria, 0.0005 µM, Mean, read-out: in vitro complex I activity relative to solvent control",77.4%
same,in vitro complex I activity relative to solvent control,"P. pacificus complex I; P. pacificus mitochondria, 0.0005 µM, single replicate",88.361% and 49.299%
same,remaining activity at 0.001 µM,"P. pacificus complex I; P. pacificus mitochondria, 0.001 µM, Mean, read-out: in vitro complex I activity relative to solvent control",107%
same,in vitro complex I activity relative to solvent control,"P. pacificus complex I; P. pacificus mitochondria, 0.001 µM, single replicate",104.362% and 121.410% and 94.602%
same,remaining activity at 0.0025 µM,"P. pacificus complex I; P. pacificus mitochondria, 0.0025 µM, Mean, read-out: in vitro complex I activity relative to solvent control",102%
same,in vitro complex I activity relative to solvent control,"P. pacificus complex I; P. pacificus mitochondria, 0.0025 µM, single replicate",89.591% and 126.458% and 89.566%
same,remaining activity at 0.005 µM,"P. pacificus complex I; P. pacificus mitochondria, 0.005 µM, Mean, read-out: in vitro complex I activity relative to solvent control",96.6%
same,in vitro complex I activity relative to solvent control,"P. pacificus complex I; P. pacificus mitochondria, 0.005 µM, single replicate",89.435% and 110.953% and 89.424%
same,remaining activity at 0.013 µM,"P. pacificus complex I; P. pacificus mitochondria, 0.013 µM, Mean, read-out: in vitro complex I activity relative to solvent control",82.8%
same,in vitro complex I activity relative to solvent control,"P. pacificus complex I; P. pacificus mitochondria, 0.013 µM, single replicate",85.370% and 80.753%
same,remaining activity at 0.013 µM,"P. pacificus complex I; P. pacificus mitochondria, 0.013 µM, single replicate, read-out: in vitro complex I activity relative to solvent control",82.3%
same,remaining activity at 0.025 µM,"P. pacificus complex I; P. pacificus mitochondria, 0.025 µM, Mean, read-out: in vitro complex I activity relative to solvent control",81.8%
same,in vitro complex I activity relative to solvent control,"P. pacificus complex I; P. pacificus mitochondria, 0.025 µM, single replicate",78.182% and 98.911% and 68.184%
same,remaining activity at 0.063 µM,"P. pacificus complex I; P. pacificus mitochondria, 0.063 µM, Mean, read-out: in vitro complex I activity relative to solvent control",55.6%
same,in vitro complex I activity relative to solvent control,"P. pacificus complex I; P. pacificus mitochondria, 0.063 µM, single replicate",59.066% and 53.138%
same,remaining activity at 0.063 µM,"P. pacificus complex I; P. pacificus mitochondria, 0.063 µM, single replicate, read-out: in vitro complex I activity relative to solvent control",54.5%
same,remaining activity at 0.125 µM,"P. pacificus complex I; P. pacificus mitochondria, 0.125 µM, Mean, read-out: in vitro complex I activity relative to solvent control",36.1%
same,in vitro complex I activity relative to solvent control,"P. pacificus complex I; P. pacificus mitochondria, 0.125 µM, single replicate",35.771% and 33.806%
same,remaining activity at 0.125 µM,"P. pacificus complex I; P. pacificus mitochondria, 0.125 µM, single replicate, read-out: in vitro complex I activity relative to solvent control",38.7%
same,remaining activity at 0.313 µM,"P. pacificus complex I; P. pacificus mitochondria, 0.313 µM, Mean, read-out: in vitro complex I activity relative to solvent control",20.5%
same,in vitro complex I activity relative to solvent control,"P. pacificus complex I; P. pacificus mitochondria, 0.313 µM, single replicate",25.713% and 19.065%
same,remaining activity at 0.313 µM,"P. pacificus complex I; P. pacificus mitochondria, 0.313 µM, single replicate, read-out: in vitro complex I activity relative to solvent control",16.8%
same,remaining activity at 0.625 µM,"P. pacificus complex I; P. pacificus mitochondria, 0.625 µM, Mean, read-out: in vitro complex I activity relative to solvent control",17.3%
same,in vitro complex I activity relative to solvent control,"P. pacificus complex I; P. pacificus mitochondria, 0.625 µM, single replicate",22.397% and 7.371% and 22.004%
same,remaining activity at 1.5 µM,"P. pacificus complex I; P. pacificus mitochondria, 1.5 µM, Mean, read-out: in vitro complex I activity relative to solvent control",18.5%
same,in vitro complex I activity relative to solvent control,"P. pacificus complex I; P. pacificus mitochondria, 1.5 µM, single replicate",23.927% and 2.400% and 29.263%
same,remaining activity at 3 µM,"P. pacificus complex I; P. pacificus mitochondria, 3 µM, Mean, read-out: in vitro complex I activity relative to solvent control",15.2%
same,in vitro complex I activity relative to solvent control,"P. pacificus complex I; P. pacificus mitochondria, 3 µM, single replicate",21.335% and 0.000% and 24.340%
same,remaining activity at 15 µM,"P. pacificus complex I; P. pacificus mitochondria, 15 µM, Mean, read-out: in vitro complex I activity relative to solvent control",7.59%
same,in vitro complex I activity relative to solvent control,"P. pacificus complex I; P. pacificus mitochondria, 15 µM, single replicate",11.369% and 0.506% and 10.901%
same,remaining activity at 37.5 µM,"P. pacificus complex I; P. pacificus mitochondria, 37.5 µM, Mean, read-out: in vitro complex I activity relative to solvent control",7.5%
same,in vitro complex I activity relative to solvent control,"P. pacificus complex I; P. pacificus mitochondria, 37.5 µM, single replicate",6.933% and 4.878% and 10.703%
same,remaining activity at 75 µM,"P. pacificus complex I; P. pacificus mitochondria, 75 µM, Mean, read-out: in vitro complex I activity relative to solvent control",4.35%
same,in vitro complex I activity relative to solvent control,"P. pacificus complex I; P. pacificus mitochondria, 75 µM, single replicate",3.580% and 5.152%
same,remaining activity at 75 µM,"P. pacificus complex I; P. pacificus mitochondria, 75 µM, single replicate, read-out: in vitro complex I activity relative to solvent control",4.33%
same,IC50,P. pacificus complex I; purified mitochondria,70 nM
same,in vitro complex I activity relative to solvent control,"[1]; 0.0001 µM, Mean",89.612%
same,in vitro complex I activity relative to solvent control,"[1]; 0.0001 µM, single replicate",93.319% and 105.139% and 70.379%
same,in vitro complex I activity relative to solvent control,"[1]; 0.0005 µM, Mean",95.634%
same,in vitro complex I activity relative to solvent control,"[1]; 0.0005 µM, single replicate",119.766% and 92.855% and 74.280%
same,in vitro complex I activity relative to solvent control,"[1]; 0.001 µM, Mean",90.469%
same,in vitro complex I activity relative to solvent control,"[1]; 0.001 µM, single replicate",96.266% and 129.304% and 45.836%
same,in vitro complex I activity relative to solvent control,"[1]; 0.0025 µM, Mean",83.278%
same,in vitro complex I activity relative to solvent control,"[1]; 0.0025 µM, single replicate",64.388% and 114.111% and 71.337%
same,in vitro complex I activity relative to solvent control,"[1]; 0.005 µM, Mean",110.209%
same,in vitro complex I activity relative to solvent control,"[1]; 0.005 µM, single replicate",99.329% and 145.962% and 85.335%
same,in vitro complex I activity relative to solvent control,"[1]; 0.013 µM, Mean",102.008%
same,in vitro complex I activity relative to solvent control,"[1]; 0.013 µM, single replicate",103.702% and 118.527% and 83.796%
same,in vitro complex I activity relative to solvent control,"[1]; 0.025 µM, Mean",81.894%
same,in vitro complex I activity relative to solvent control,"[1]; 0.025 µM, single replicate",82.152% and 107.849% and 55.682%
same,in vitro complex I activity relative to solvent control,"[1]; 0.063 µM, Mean",53.328%
same,in vitro complex I activity relative to solvent control,"[1]; 0.063 µM, single replicate",61.601% and 65.149% and 33.235%
same,in vitro complex I activity relative to solvent control,"[1]; 0.125 µM, Mean",31.057%
same,in vitro complex I activity relative to solvent control,"[1]; 0.125 µM, single replicate",37.073% and 51.097% and 5.000%
same,in vitro complex I activity relative to solvent control,"[1]; 0.313 µM, Mean",8.632%
same,in vitro complex I activity relative to solvent control,"[1]; 0.313 µM, single replicate",10.235% and 15.661% and 0.000%
same,in vitro complex I activity relative to solvent control,"[1]; 0.625 µM, Mean",5.779%
same,in vitro complex I activity relative to solvent control,"[1]; 0.625 µM, single replicate",0.000% and 9.493% and 7.843%
same,in vitro complex I activity relative to solvent control,"[1]; 1.5 µM, Mean",4.860%
same,in vitro complex I activity relative to solvent control,"[1]; 1.5 µM, single replicate",0.000% and 2.483% and 12.098%
same,in vitro complex I activity relative to solvent control,"[1]; 3 µM, Mean",2.448%
same,in vitro complex I activity relative to solvent control,"[1]; 3 µM, single replicate",0.000% and 7.344%
same,in vitro complex I activity relative to solvent control,"[1]; 15 µM, Mean",12.306%
same,in vitro complex I activity relative to solvent control,"[1]; 15 µM, single replicate",12.065% and 18.802% and 6.051%
same,in vitro complex I activity relative to solvent control,"[1]; 37.5 µM, Mean",7.732%
same,in vitro complex I activity relative to solvent control,"[1]; 37.5 µM, single replicate",0.065% and 16.547% and 6.585%
same,in vitro complex I activity relative to solvent control,"[1]; 75 µM, Mean",3.784%
same,in vitro complex I activity relative to solvent control,"[1]; 75 µM, single replicate",0.000% and 11.350%
same,IC50,[1]; purified mitochondria,70.3 nM
